In US20260272923A1, “NONSENSE MEDIATED DECAY INHIBITOR COMPOUNDS” (The Johns Hopkins University, priority 2023, published 2026):

Assays:
[1] = tested on: mutant form of TP53 protein; experiment: Western blot against TP53 in NCI-H716 and NCI-H2228 cell lines
[2] = tested on: nonsense mediated decay (NMD); experiment: Ratiometric mutant/wild type transcript sequencing assay (HTS) in RPE1 STAG2 and TP53 isogenic knockout cell lines; assay type: cell-based
Description: An experimental system was generated to identify and evaluate NMD inhibitors based on a panel of isogenic cell lines developed to assess tumor suppressor gene function and synthetic lethality. Briefly, common tumor suppressor genes were individually knocked out in multiple non-cancerous cell lines using the Clustered Regularly Interspaced Short Palindromic Repeats (CRISPR)-Cas9 system. As part of this effort, two genes displaying strong activation of NMD in response to indel creation were identified, Stromal Antigen 2 (STAG2) and Tumor Protein p53 (TP53). The absence of detectable protein in these knock out cell lines was verified via western blots against STAG2 and immunohistochemistry for TP53. Further, active RNA decay of the mutant transcripts was identified through whole transcriptome RNA-sequencing. […]
A high throughput screen (HTS) was then performed by treating the isogenic cell line mixture with the SelleckChem Bioactive library, consisting of 2,658 small molecules and natural products (FIG. 1A). Total RNA was harvested from cells 16 hours post treatment and the gRNA target regions were amplified using a panel of primers (one for TP53 and one for STAG2) and mutant and wild type transcript abundance was quantified using next generation sequencing. […]

[3] = tested on: truncated mutant TP53 protein; experiment: TP53 western blot in TP53 knockout clones; assay type: cell-based; conditions: for expression of truncated mutant TP53 protein: TP53 knockout cell line with homozygous mutation, DO-1 antibody
Experimental: (§1) To confirm generality of the NMD HTS hits, validations were performed on isogenic STAG2 and TP53 knockouts in a second cell line background, RPtec (renal) cells. Transcript recovery was first evaluated in STAG2 and TP53 isogenic knockout clones from this second background. […] A TP53 knockout cell line was then selected with a homozygous mutation predicted to generate a truncated TP53 protein readily identifiable by established TP53 antibodies (DO-1). […] Using cell lines where the TP530 isoform transcripts are expected to be intact, an increase in the TP53$ isoform was also observed in cell lines treated with the NMD inhibitors (FIG. 1E middle and left column). […] Based on strong induction of predicted mutant truncated protein across multiple isogenic cell lines LY3023414 was selected as the NMD inhibiting compound of interest. LY3023414 was created as a phosphatidylinositol 3-kinase (PI3K) inhibitor with activity against AKT Serine/Threonine Kinase 1 (AKT1) and Target of Rapamycin (mTOR).

[4] = tested on: NMD sensitive transcripts (TP53β); experiment: Quantitative real time PCR of TP53α and TP53β transcripts in parental RPE1 and RPTec cells; assay type: cell-based
Experimental: as §1

[5] = tested on: nonsense mediated decay (NMD); experiment: RNA sequencing of NCI-H358 and LS180 cancer cell lines; assay type: cell-based
Description: (§2) It was next sought to evaluate whether LY3023414 could relieve repression of indel containing transcripts in cancer cells. The microsatellite stable NCI-H358 and microsatellite instable LS180 lung and colorectal cancer cell lines were chosen respectively. Nearly 40% of heterozygous indel and 25% of nonsense single base-pair mutation containing genes show increased expression of their mutant allele when treated with LY3023414 when evaluated by RNA sequencing (FIG. 2A). […] Heterozygous single nucleotide polymorphism (SNP) Ring Finger Protein 43 (RNF43) and drosha ribonuclease […] (DROSHA) served as controls, and allele ratios remain unchanged with treatment (FIG. 2B). To investigate for changes at the protein level, NCI-H358 cells were treated for 24 hours with either LY3023414 or DMSO.
(§3) Analyzing a wider set of 21 NMD sensitive genes from the RNA-Seq analysis in LS180 confirmed that LY3023414 and SMG1 specific inhibitor increase the same 18 genes with a greater than 80% re-expression rate, in both cell lines. […] As SMG1 inhibition is an off target effect for LY3023414, the concentrations used in this study may result in inhibition of a number of different kinases.

[6] = tested on: nonsense mediated decay (NMD); experiment: Targeted RNA sequencing of heterozygous indel mutations in NCI-H358 and LS180 cells; assay type: cell-based; conditions: NCI-H358 and LS180, in vitro
Description: as §2, §3
(§4) To confirm disruption of downstream signaling of SMG1, a western blot was performed with phosphorylation specific antibodies for UPF1.

[7] = tested on: NMD targeted mutant protein (EXOC1, SPTAN1); experiment: Western blot of mutant proteins in NCI-H358 and LS180 cells; assay type: cell-based; conditions: NCI-H358 cells, 24 hours
Description: as §2, §3, §4

[8] = tested on: nonsense mediated decay (NMD); experiment: NCI-H358 and LS180 xenograft tumors in NOD-SCID mice, mutant RNA transcripts and tolerability; assay type: in vivo
phosphorylated UPF1 = experiment: Phospho-UPF1 specific western blot; assay type: cell-based; conditions: FIG. 3D
Experimental: as §3, §4

[9] = tested on: nonsense mediated decay (NMD); experiment: Targeted RNA-sequencing of indel genes in LS180 cells; assay type: cell-based; conditions: serial dilution starting at 5 uM, 16 hrs
Experimental: LS180 Cells were plated into 96 well plates at 1e4 cells/well. The compound of Formula III was solubilized in DMSO and added in a serial dilution starting at 5 uM and diluting 1:2. Cells were incubated for 16 hrs at 37 C and 5% CO2. RNA was harvested using an RNeasy kit (Qiagen). Reverse transcription was performed per manufacturer's instructions (High Capacity cDNA kit from Applied Biosciences). Primers specific for the indel mutation site for 3 genes were used, and at least one primer from each set overlapped an exon-exon boundary. RNF43 is a common SNP that is heterozygous in LS180 and was used as a negative control. After PCR amplification, products were barcoded with an 8 bp sequence so the well it originated in could be determined, and sequenced on a Miseq (Illumina). Transcripts from the wild type and mutant allele were counted to determine abundance of each with treatment or without (FIG. 8A).

mutant protein (TP53) [10] = experiment: TP53 western blot in H358, LS180 and RPE TP53 KO clone 224; assay type: cell-based; conditions: 5 uM, 16 hours
Experimental: H358 (negative control), LSl80, and RPE TP53 KO line clone 224 were plated (at 1e5 cells per well) into 6 well plates. Wells were treated with 5 uM of the compound of Formula III for 16 hours. Cells were harvested, pelleted and washed with PBS. Cells were lysed using RIPA buffer (Thermo Scientific) and then run through a Qiashredder column (Qiagen) following manufacturer's instructions. Protein was quantified using a BCA Kit (Pierce). 50 ug of protein was loaded into 5-15% polyacrylamide gels (Biorad) and run for 30 min at 200V. Protein was transferred to a nitrocellulose membrane following manufacturer's recommendations and stained with a TP53 protein (clone DO-1 from Cell Signaling) overnight in 3% milk with TBS-T. HRP conjugated secondary antibody was used for detection and imaged on a gel imager (Bio Rad) (FIG. 8B).

[11] = tested on: nonsense mediated decay (NMD); experiment: Targeted RNA-sequencing of subcutaneous H358 and LS180 tumors in nude mice; assay type: in vivo; conditions: IP dose at 30 mg/kg, H358 or LS180 tumors, 16 hours after treatment
Experimental: All animal work was done under the supervision and guidance of Johns Hopkins Animal Care and Use committee with appropriate protocols and humane standards of care. LS180 and H358 cell lines (ATCC) were placed subcutaneously in the back of nude mice (Jackson Laboratories). The compound of Formula III was solubilized in 10% cremaphor (Sigma Aldrich) with 2% glycerol (Sigma Aldrich) and sterilized by 0.22 uM filter (Thermo Scientific). After tumors reached palpable size, about 7 days, mice were treated with […] of the compound of Formula III by IP injection. 16 hours after treatment, mice were sacked, and tumors were harvested and stored in RNA Later (Thermo Scientific). RNA was harvested using an RNeasy kit (Qiagen) and Qiashredder (Qiagen). Reverse transcription was performed per manufacturer's instructions (High Capacity cDNA kit from Applied Biosciences). Primers specific for the indel mutation site for 3 genes were used, and at least one primer from each set overlapped an exon-exon boundary. […] After PCR amplification, products were barcoded with an 8 bp sequence so the well it originated in could be determined, and sequenced on a Miseq (Illumina). Transcripts from the wild type and mutant allele were counted to determine abundance of each with treatment or without (FIGS. 9A-9B).

[12] = tested on: nonsense mediated decay (NMD); experiment: Real time PCR of STAG2 transcripts in RPE STAG2 knockout cells; assay type: cell-based; conditions: serial dilution starting at 10 uM, 16 hrs
Experimental: RPE STAG2 knockout cells were created and plated into 96 well plates at 1e4 cells/well. The compound of Formula II was solubilized in DMSO and added in a serial dilution starting at 10 uM and diluting 1:2. Cells were incubated for 16 hrs at 37 C and 5% CO2. RNA was harvested using an RNeasy kit (Qiagen). Real time PCR was performed using primers specific for STAG2 transcripts and at least one primer overlapped an exon-exon boundary (FIG. 7A).

mutant protein (TP53) [13] = experiment: TP53 western blot in TP53 KO lines; assay type: cell-based; conditions: 5 uM, 16 hours
Experimental: TP53 KO lines were created and plated (at 1e5 cells per well) into 6 well plates. Wells were treated with 5 uM of the compound of Formula II for 16 hours. Cells were harvested, pelleted and washed with PBS. Cells were lysed using RIPA buffer (Thermo Scientific) and then run through a Qiashredder column (Qiagen) following manufacturer's instructions. Protein was quantified using a BCA Kit (Pierce). 50 ug of protein was loaded into 5-15% polyacrylamide gels (Biorad) and run for 30 min at 200V. Protein was transferred to a nitrocellulose membrane following manufacturer's recommendations and stained with a TP53 protein (clone DO-1 from Cell Signaling) overnight in 3% milk with TBS-T. HRP conjugated secondary antibody was used for detection and imaged on a gel imager (Bio Rad) (FIG. 7B).

Compound: O=c1[nH]cc(F)c(=O)[nH]1 [5-fluorouracil]
- TP53 protein levels [1]: no effect on TP53 levels

Compound: COc1ccc(C[C@H]2NC[C@H](O)[C@H]2OC(C)=O)cc1 [Anisomycin]
- mutant transcript fraction ([2]; 16 hours post treatment, in all three cell lines, 0.5 = 4 standard deviations above DMSO controls): above 0.5

Compound: CO[C@@H](C)Cn1c(=O)n(C)c2cnc3ccc(-c4cncc(C(C)(C)O)c4)cc3c21 [LY3023414]
- induction of TP53β and mutant TP53 (western blot) ([3]; RPE TP53 clone 223, RPTec TP53 KO 588, full-length not induced): prominently induced
- expression of truncated mutant TP53 protein [3]: robustly induced expression of the truncated mutant TP53 protein
- TP53α and TP53β transcript levels [4]: only the NMD regulated (TP53β) transcript levels increased with treatment
- heterozygous indel containing genes with increased expression of mutant allele [5]: ~40%
- nonsense single base-pair mutation containing genes with increased expression of mutant allele [5]: 25%
- mutant allele RNA expression [6]: significant increased expression of the mutant allele
- truncated mutant EXOC1 and SPTAN1 protein expression [7]: truncated mutant protein only expressed after treatment with LY3023414
- autopsies of treated animals ([8]; mice treated with LY3023414): no abnormalities
- weight loss ([8]; mice treated with LY3023414): severe weight loss
- expression of mutant RNA transcripts in tumors ([8]; single dose by oral gavage, tumors harvested over 24 hours): increase in the expression of mutant RNA transcripts
- phospho-UPF1 levels (phosphorylated UPF1): increases the levels of phospho-UPF

Compound: CNC(=O)Nc1ccc(-c2cc(-c3ccnc(Nc4ccc(Cl)c(S(=O)(=O)N5CCN(C)CC5)c4)n3)ccn2)cc1 [compound of Formula III]
- mutant RNA re-expression [9]: re-expresses mutant RNA in vitro
- mutant protein re-expression (mutant protein (TP53) [10]): re-expresses mutant protein in vitro
- in vivo NMD inhibition (re-expression of NMD downregulated genes) [11]: in vivo NMD inhibition activity

Compound: CNC(=O)Nc1ccc(-c2cc(-c3ccnc(Nc4ccc(Cl)c(S(=O)(=O)N(CCO)CCO)c4)n3)ccn2)cc1 [compound of Formula II]
- mutant RNA re-expression [12]: re-expresses mutant RNA
- mutant protein re-expression (mutant protein (TP53) [13]): re-expresses mutant protein

Compound: CC[C@H]1CN2CCc3cc(OC)c(OC)cc3[C@@H]2C[C@@H]1C[C@H]1NCCc2cc(OC)c(OC)cc21 [emetine]
- recovery of mutant RNA transcript expression ([2]; RPE1 STAG2/TP53 knockout cell line mixture): 6 fold

Compound: O=C(CC1NCCCC1O)Cn1cnc2cc(Br)c(Cl)cc2c1=O (centres unmarked) [halofuginone]
- expression of truncated mutant TP53 protein [3]: robustly induced expression of the truncated mutant TP53 protein
